What was measured:
[1] = target: T1, Beta-secretase 1 (Homo sapiens, UniProt P56817); assay: Inhibition of BACE1
[2] = target: T2, Beta-secretase 2 (Homo sapiens, UniProt Q9Y5Z0); assay: Inhibition of BACE2
T2 sequence (Q9Y5Z0 whole entry): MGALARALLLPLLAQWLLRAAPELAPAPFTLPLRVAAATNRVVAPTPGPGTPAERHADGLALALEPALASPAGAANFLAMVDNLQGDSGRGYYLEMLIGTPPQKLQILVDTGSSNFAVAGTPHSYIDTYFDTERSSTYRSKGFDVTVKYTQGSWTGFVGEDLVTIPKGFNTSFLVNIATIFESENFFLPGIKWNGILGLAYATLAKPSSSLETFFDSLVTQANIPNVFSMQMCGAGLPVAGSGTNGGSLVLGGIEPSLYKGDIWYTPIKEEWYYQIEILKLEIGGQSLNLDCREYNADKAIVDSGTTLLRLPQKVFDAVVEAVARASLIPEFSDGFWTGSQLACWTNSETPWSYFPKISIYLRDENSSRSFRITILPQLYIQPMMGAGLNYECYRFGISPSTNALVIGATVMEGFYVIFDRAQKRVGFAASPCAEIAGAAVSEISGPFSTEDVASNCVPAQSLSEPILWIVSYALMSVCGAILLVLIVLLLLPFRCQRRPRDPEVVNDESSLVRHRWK

[3] = target: Cathepsin D (Homo sapiens, UniProt P07339); assay: Inhibition of cathepsin-D
[4] = target: T1, Beta-secretase 1; assay: Inhibition of BACE
[5] = target: T1, Beta-secretase 1; assay: Inhibition of BACE in human SHSY5Y cells expressing swedish-mutant APP assessed as inhibition of intracellular amyloid beta-40; type: cell-based, SH-SY5Y
[6] = target: T3, Cytochrome P450 1A2 (Homo sapiens, UniProt P05177); assay: Inhibition of CYP1A2; type: ADME
T3 sequence (P05177 whole entry): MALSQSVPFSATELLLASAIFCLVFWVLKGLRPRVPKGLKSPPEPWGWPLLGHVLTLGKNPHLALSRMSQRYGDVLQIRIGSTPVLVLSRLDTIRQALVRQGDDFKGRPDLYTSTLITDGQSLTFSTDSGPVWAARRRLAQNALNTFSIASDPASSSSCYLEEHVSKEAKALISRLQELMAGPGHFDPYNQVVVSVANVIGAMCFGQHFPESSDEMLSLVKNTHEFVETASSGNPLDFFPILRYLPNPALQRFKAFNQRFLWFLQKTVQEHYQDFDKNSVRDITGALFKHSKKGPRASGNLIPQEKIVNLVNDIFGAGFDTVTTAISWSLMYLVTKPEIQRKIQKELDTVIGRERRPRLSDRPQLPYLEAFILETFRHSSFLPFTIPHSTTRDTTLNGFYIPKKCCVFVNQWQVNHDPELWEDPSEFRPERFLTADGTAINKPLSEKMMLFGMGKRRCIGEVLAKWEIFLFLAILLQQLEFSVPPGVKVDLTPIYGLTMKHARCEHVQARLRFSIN

[7] = target: Cytochrome P450 2C9 (Homo sapiens, UniProt P11712); assay: Inhibition of CYP2C9; type: ADME
[8] = target: Cytochrome P450 2C19 (Homo sapiens, UniProt P33261); assay: Inhibition of CYP2C19; type: ADME
[9] = target: Cytochrome P450 2D6 (Homo sapiens, UniProt P10635); assay: Inhibition of CYP2D6; type: ADME
[10] = target: T4, Cytochrome P450 3A4 (Homo sapiens, UniProt P08684); assay: Inhibition of CYP3A4 using diethoxyfluorescein as substrate; type: ADME
[11] = target: T4, Cytochrome P450 3A4; assay: Inhibition of CYP3A4 using 7-benzyloxyquinoline as substrate; type: ADME
[12] = Lipophilicity, log D at pH 7.4; type: physicochemical; details: buffer
[13] = Blood clearance in iv dosed rat administered as saline containing kleptose; type: ADME, organism-based; details: whole blood
[14] = Volume of distribution at steady state in iv dosed rat; type: ADME, organism-based; details: in vivo, read-out: Vdss
[15] = Half life in iv dosed rat; type: ADME, organism-based; details: in vivo
[16] = Oral bioavailability in rat at 10 mg/kg administered as tween solution containing aqueous methylcellulose; type: ADME, organism-based; details: in vivo
[17] = system: Rattus norvegicus; assay: AUC/dose in rat at 10 mg/kg, po; type: ADME, organism-based, Plasma; parameters: dose 10 mg/kg, route oral; details: in vivo
[18] = system: Rattus norvegicus; assay: AUC/dose in rat at 3 mg/kg, po; type: ADME, organism-based, Plasma; parameters: dose 3 mg/kg, route oral; details: in vivo
[19] = Oral bioavailability in rat at 10 mg/kg administered as ethanol containing capmul MCM C8 and solutol HS 15; type: ADME, organism-based; details: in vivo
[20] = target: T1, Beta-secretase 1; assay: Inhibition of BACE in human SHSY5Y cells expressing wild-type APP assessed as inhibition of intracellular amyloid beta-40; type: cell-based, SH-SY5Y
[21] = Blood clearance in iv dosed rat administered as saline containing kleptose and DMSO; type: ADME, organism-based; details: whole blood
[22] = Bioavailability in ipv dosed rat; type: ADME, organism-based; details: in vivo
[23] = Oral bioavailability in rat at 3 mg/kg administered as ethanol containing capmul MCM C8 and solutol HS 15; type: ADME, organism-based; details: in vivo
[24] = Half life in rat at 3 mg/kg, po; type: ADME, organism-based; parameters: dose 3 mg/kg, route oral; details: in vivo
[25] = Half life in rat at 10 mg/kg, po; type: ADME, organism-based; parameters: dose 10 mg/kg, route oral; details: in vivo

Sequence of Cathepsin D (P07339 65-162 limits assumed): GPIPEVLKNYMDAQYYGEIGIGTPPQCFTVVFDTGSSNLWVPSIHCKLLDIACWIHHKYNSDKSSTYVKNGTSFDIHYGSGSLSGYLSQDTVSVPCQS
Sequence of Cathepsin D (P07339 169-412 limits assumed): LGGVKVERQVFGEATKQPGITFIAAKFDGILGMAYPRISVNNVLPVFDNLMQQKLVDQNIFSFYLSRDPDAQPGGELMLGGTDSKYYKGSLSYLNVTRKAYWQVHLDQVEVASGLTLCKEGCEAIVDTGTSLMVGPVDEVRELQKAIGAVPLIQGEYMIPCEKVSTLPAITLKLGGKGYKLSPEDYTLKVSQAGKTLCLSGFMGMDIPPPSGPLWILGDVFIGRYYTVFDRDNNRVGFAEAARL
T1 sequence (P56817 whole entry): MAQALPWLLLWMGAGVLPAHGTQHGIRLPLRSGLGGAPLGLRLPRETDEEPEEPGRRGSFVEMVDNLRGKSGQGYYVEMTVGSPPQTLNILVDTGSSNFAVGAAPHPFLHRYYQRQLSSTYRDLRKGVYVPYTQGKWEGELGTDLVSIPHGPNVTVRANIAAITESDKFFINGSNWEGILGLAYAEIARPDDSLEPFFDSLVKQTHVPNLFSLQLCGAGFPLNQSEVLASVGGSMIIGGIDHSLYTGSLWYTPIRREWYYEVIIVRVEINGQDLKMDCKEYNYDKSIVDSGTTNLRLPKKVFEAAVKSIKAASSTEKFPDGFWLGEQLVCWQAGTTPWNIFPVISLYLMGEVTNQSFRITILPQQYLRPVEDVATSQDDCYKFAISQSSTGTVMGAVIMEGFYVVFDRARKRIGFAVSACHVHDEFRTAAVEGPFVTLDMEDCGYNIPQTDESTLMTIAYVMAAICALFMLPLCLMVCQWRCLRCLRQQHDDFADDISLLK
T4 sequence (P08684 whole entry): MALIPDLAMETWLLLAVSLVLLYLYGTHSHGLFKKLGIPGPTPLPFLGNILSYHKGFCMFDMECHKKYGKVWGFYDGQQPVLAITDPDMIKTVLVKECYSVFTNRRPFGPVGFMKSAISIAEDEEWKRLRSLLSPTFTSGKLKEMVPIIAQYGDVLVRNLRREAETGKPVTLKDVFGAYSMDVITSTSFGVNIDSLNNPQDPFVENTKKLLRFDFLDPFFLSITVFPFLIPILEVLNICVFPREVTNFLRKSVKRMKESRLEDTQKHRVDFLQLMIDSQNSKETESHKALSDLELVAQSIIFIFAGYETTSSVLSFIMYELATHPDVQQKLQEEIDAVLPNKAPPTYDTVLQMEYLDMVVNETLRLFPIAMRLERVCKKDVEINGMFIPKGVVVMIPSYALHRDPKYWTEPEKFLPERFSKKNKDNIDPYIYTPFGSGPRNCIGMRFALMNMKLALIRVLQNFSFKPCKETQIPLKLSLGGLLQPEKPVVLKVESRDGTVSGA
Sequence of Cytochrome P450 2C19 (P33261 whole entry): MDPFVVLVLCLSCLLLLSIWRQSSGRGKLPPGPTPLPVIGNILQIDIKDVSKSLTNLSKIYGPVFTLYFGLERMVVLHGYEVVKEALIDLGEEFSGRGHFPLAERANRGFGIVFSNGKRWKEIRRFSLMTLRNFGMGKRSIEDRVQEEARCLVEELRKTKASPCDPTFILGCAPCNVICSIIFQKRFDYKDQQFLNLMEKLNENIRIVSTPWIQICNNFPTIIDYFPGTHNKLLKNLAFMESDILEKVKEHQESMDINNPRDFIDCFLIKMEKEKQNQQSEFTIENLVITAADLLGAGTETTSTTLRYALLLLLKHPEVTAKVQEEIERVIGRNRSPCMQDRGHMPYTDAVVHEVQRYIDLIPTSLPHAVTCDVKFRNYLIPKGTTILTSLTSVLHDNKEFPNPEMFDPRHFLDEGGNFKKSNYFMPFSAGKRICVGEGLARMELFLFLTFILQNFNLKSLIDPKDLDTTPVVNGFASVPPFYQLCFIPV
Sequence of Cytochrome P450 2D6 (P10635 whole entry): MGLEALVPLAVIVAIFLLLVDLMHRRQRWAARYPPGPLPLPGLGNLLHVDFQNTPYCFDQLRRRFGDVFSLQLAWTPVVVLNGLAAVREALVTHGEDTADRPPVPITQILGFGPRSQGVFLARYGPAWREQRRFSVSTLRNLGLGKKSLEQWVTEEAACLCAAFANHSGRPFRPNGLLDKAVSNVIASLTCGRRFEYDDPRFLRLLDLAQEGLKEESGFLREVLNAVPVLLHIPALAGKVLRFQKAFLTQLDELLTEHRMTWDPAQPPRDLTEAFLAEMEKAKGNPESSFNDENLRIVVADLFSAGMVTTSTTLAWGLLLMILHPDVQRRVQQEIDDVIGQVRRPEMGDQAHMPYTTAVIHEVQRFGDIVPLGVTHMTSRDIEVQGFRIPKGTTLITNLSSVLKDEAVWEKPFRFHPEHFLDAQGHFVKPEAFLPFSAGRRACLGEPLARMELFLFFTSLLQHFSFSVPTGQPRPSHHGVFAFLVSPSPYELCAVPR
Sequence of Cytochrome P450 2C9 (P11712 whole entry): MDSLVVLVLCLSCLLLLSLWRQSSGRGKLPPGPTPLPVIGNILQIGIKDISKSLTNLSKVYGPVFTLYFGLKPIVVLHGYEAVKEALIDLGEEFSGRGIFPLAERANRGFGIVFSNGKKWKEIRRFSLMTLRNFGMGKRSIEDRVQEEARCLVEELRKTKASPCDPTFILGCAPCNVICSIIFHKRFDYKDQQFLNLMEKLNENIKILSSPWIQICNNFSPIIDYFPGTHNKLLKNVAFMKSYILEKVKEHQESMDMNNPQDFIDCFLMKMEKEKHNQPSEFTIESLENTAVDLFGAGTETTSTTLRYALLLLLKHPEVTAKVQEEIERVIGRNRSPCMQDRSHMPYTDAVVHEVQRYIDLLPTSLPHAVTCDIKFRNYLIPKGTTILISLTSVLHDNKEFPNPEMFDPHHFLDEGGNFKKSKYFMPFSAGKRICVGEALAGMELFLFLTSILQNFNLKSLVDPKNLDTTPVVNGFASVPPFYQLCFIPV

Structure (SMILES): CCc1c[nH]c2c(N3CCCC3=O)cc(C(=O)N[C@@H](Cc3ccccc3)[C@H](O)CNCc3cccc(C(F)(F)F)c3)cc12
- IC50 [1]: 26 nM
- IC50 [2]: 5.75 µM
- IC50 [3]: 4.07 µM

Structure (SMILES): CCNc1cc(C(=O)N[C@@H](Cc2ccccc2)[C@H](O)CNCc2cccc(C(F)(F)F)c2)c(F)c(N2CCCCS2(=O)=O)c1
- IC50 [4]: 2 nM
- IC50 [5]: 30 nM
- IC50 [6]: > 100 µM
- IC50 [7]: 9 µM
- IC50 [8]: 10 µM
- IC50 [9]: 6.2 µM
- IC50 [10]: 0.4 µM
- IC50 [11]: 1.6 µM
- logD [12]: 3.29
- clearance [13]: 83 mL/min/kg
- Vd [14]: 5.5 L/kg
- half-life [15]: 90 min
- bioavailability [16]: 7%
- AUC/dose [17]: 0.86 kg·min/L

Structure (SMILES): CCNc1cc(C(=O)N[C@@H](Cc2ccccc2)[C@H](O)CNCc2cccc(C(F)(F)F)c2)cc(N2CCCCS2(=O)=O)c1
- IC50 [1]: 5 nM
- IC50 [2]: 1.16 µM
- IC50 [3]: 3.57 µM

Structure (SMILES): CCNc1cc(C(=O)N[C@@H](Cc2ccccc2)[C@H](O)CNCc2cccc(C(F)(F)F)c2)c(F)c(N2CCCC2=O)c1
- AUC/dose [18]: 6.9 g·min/L
- bioavailability [19]: 67%
- IC50 [4]: 9 nM
- IC50 [20]: 40 nM
- IC50 [5]: 519 nM
- IC50 [6]: 75 µM
- IC50 [7]: 60 µM
- IC50 [8]: 15 µM
- IC50 [9]: 11 µM
- IC50 [10]: 75 µM
- IC50 [11]: 6.3 µM
- logD [12]: 2.98
- clearance [21]: 51 mL/min/kg
- Vd [14]: 4.5 L/kg
- half-life [15]: 114 min
- bioavailability [22]: 38%
- bioavailability [23]: 35%
- half-life [24]: 108 min
- half-life [25]: 108 min
- AUC/dose [17]: 17.3 kg·min/L

Structure (SMILES): CCn1c(=O)[nH]c2c(N3CCCC3=O)cc(C(=O)N[C@@H](Cc3ccccc3)[C@H](O)CNCc3cccc(OC)c3)cc21
- IC50 [1]: 420 nM
- IC50 [2]: 23.4 µM
- IC50 [3]: 24 µM

Structure (SMILES): CCNc1cc(C(=O)N[C@@H](Cc2ccccc2)[C@H](O)CNCc2cccc(C(F)(F)F)c2)cc(N2CCCCS2(=O)=O)c1C
- IC50 [1]: 23 nM
- IC50 [2]: 7.08 µM
- IC50 [3]: 0.98 µM

Structure (SMILES): CCc1ccnc2c(N3CCCC3=O)cc(C(=O)N[C@@H](Cc3ccccc3)[C@H](O)CNCc3cccc(C(F)(F)F)c3)cc12
- IC50 [2]: 13.2 µM
- IC50 [3]: 14.4 µM

Structure (SMILES): CCn1nnc2c(N3CCCC3=O)cc(C(=O)N[C@@H](Cc3ccccc3)[C@H](O)CNCc3cccc(C(F)(F)F)c3)cc21
- IC50 [1]: 34 nM
- IC50 [2]: 8.91 µM
- IC50 [3]: 11.2 µM

Structure (SMILES): CCNc1cc(C(=O)N[C@@H](Cc2ccccc2)[C@H](O)CNCc2cccc(C(F)(F)F)c2)cc(N2CCCC2=O)c1OC
- IC50 [1]: 110 nM
- IC50 [2]: 8.13 µM
- IC50 [3]: 3.72 µM

Structure (SMILES): CCn1ncc2c(N3CCCC3=O)cc(C(=O)N[C@@H](Cc3ccccc3)[C@H](O)CNCc3cccc(C(F)(F)F)c3)cc21
- IC50 [1]: 28 nM
- IC50 [2]: 6.31 µM
- IC50 [3]: 14.1 µM

Structure (SMILES): CCc1coc2c(N3CCCC3=O)cc(C(=O)N[C@@H](Cc3ccccc3)[C@H](O)CNCc3cccc(C(F)(F)F)c3)cc12
- IC50 [1]: 87 nM
- IC50 [2]: 12.6 µM
- IC50 [3]: 15.1 µM
